From patent US20140018384A1, “QUINOLINONE DERIVATIVES FOR USE IN THE TREATMENT OF AN AUTOIMMUNE DISEASE AND/OR AN INFLAMMATORY DISEASE” (PRONOXIS AB, priority 2011, published 2014)
Where two headings read alike, the source gives them in different places.

Key:
[1] = system: HL-60 cells; experiment: ROS production (isoluminol/HRP luminescence) in HL-60 cells, Biological Example 1; type: cell-based; settings: Homo sapiens, 50 μM compound vs. blank, read-out: Activity A (fold increase of NADPH activity compared to control)
Protocol: To cells (HL-60 or PLB-985) in HBSS medium was added compound (25 or 50 μM), isoluminol and Horse Radish Peroxidase, fraction II. Luminescence was measured for 10-30 minutes and the area under the […] curve was divided by that from a control experiment to give the activity expressed as fold change.
Each assay indicated below was performed at a different site, at a different time, by different personnel and/or using different cell lines, concentrations and controls. The cell line, concentration of example compound and control used in respect of each assay were as indicated below. The values obtained from these different setups (each using an otherwise identical assay) are given as Activity A, B, C, D or E in Table 5 below. The values are expressed as fold increase of NADPH activity in the presence of the relevant of compound (as indicated below) compared to the relevant control (as indicated below).
Activity A: HL-60 cells; 50 μM compound vs. blank Activity B: PLB-985 cells; 25 μM compound vs. blank Activity C, D and E: PLB-985 cells; 25 μM compound vs. DMSO

[2] = system: PLB-985 cells; experiment: ROS production (isoluminol/HRP luminescence) in PLB-985 cells, Biological Example 1; type: cell-based
Summary of the method: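 Cells in HBSS received compound plus isoluminol and HRP; luminescence followed 10–30 min, AUC divided by control to give fold change in NADPH oxidase activity. HL-60: 50 μM compound vs blank; PLB-985: 25 μM compound vs blank or vs DMSO.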

[3] = 25 μM compound vs. DMSO, setup C, read-out: Activity C (fold increase of NADPH activity compared to control)
[4] = 25 μM compound vs. blank, read-out: Activity B (fold increase of NADPH activity compared to control)
[5] = 25 μM compound vs. DMSO, setup E, read-out: Activity E (fold increase of NADPH activity compared to control)
[6] = 25 μM compound vs. DMSO, setup D, read-out: Activity D (fold increase of NADPH activity compared to control)

| SMILES | fold induction at 50 µM [1] | fold induction at 25 µM [2, 3] | other results |
| --- | --- | --- | --- |
| CCOc1ccc(NC(=O)Cn2cc(C(=O)c3ccccc3)c(=O)c3cc4c(cc32)OCO4)cc1 [Example 99, 2-(3-Benzoyl-6,7-methylenedioxy-4-oxo-1-quinolinyl)-N-(4-ethoxyphenyl)acetamide] | 4.3 | – | – |
| Cc1ccc(C(=O)c2cn(CC(=O)Nc3ccc(F)c(F)c3)c3cc4c(cc3c2=O)OCO4)cc1 [Example 97, N-(3,4-Difluorophenyl)-2-(6,7-methylenedioxy-4-oxo-3-p-toluoyl-1-quinolinyl)acetamide] | 6 | – | – |
| CCc1ccc(C(=O)c2cn(CC(=O)Nc3ccc(F)cc3)c3cc4c(cc3c2=O)OCO4)cc1 [Example 100, 2-[3-(4-Ethylbenzoyl)-6,7-methylenedioxy-4-oxo-1-quinolinyl]-N-(4-fluorophenyl)acetamide] | 2.9 | – | – |
| CCc1ccc(C(=O)c2cn(CC(=O)Nc3ccc(OC)cc3)c3cc4c(cc3c2=O)OCO4)cc1 [Example 98, N-p-Anisyl-2-[3-(4-ethylbenzoyl)-6,7-methylenedioxy-4-oxo-1-quinolinyl]acetamide] | 9 | – | – |
| COc1ccc(NC(=O)Cn2cc(C(=O)c3ccc(F)cc3)c(=O)c3cc4c(cc32)OCO4)c(OC)c1 [Example 93, N-(2,4-Dimethoxyphenyl)-2-[3-(4-fluorobenzoyl)-6,7-methylenedioxy-4-oxo-1-quinolinyl]acetamide] | 2.9 | – | – |
| Cc1ccc(C(=O)c2cn(CC(=O)Nc3ccccc3C)c3cc4c(cc3c2=O)OCO4)cc1 [Example 101, 2-(6,7-Methylenedioxy-4-oxo-3-p-toluoyl-1-quinolinyl)-N-o-tolylacetamide] | 2.1 | – | – |
| CCOc1ccc(C(=O)c2cn(CC(=O)Nc3ccc(OC)cc3)c3cc4c(cc3c2=O)OCO4)cc1 [Example 94, N-p-Anisyl-2-[3-(4-ethoxybenzoyl)-6,7-methylenedioxy-4-oxo-1-quinolinyl]acetamide] | 8.4 | – | – |
| O=C(Cn1cc(C(=O)c2ccc(Cl)cc2)c(=O)c2cc3c(cc21)OCO3)Nc1ccc(F)cc1 [Example 92, 2-[3-(4-Chlorobenzoyl)-6,7-methylenedioxy-4-oxo-1-quinolinyl]-N-(4-fluorophenyl)acetamide] | 8.2 | – | – |
| O=C(Cn1cc(S(=O)(=O)c2ccc(F)cc2)c(=O)c2cc3c(cc21)OCO3)Nc1ccccc1 [Example 96, 2-[3-(4-Fluorobenzenesulfonyl)-6,7-methylenedioxy-4-oxo-1-quinolinyl]-N-phenylacetamide] | 2.3 | – | – |
| CCOc1ccc(NC(=O)Cn2cc(C(=O)c3ccc(C)cc3)c(=O)c3cc4c(cc32)OCO4)cc1 [Example 70, N-(4-Ethoxyphenyl)-2-(6,7-methylenedioxy-4-oxo-3-p-toluoyl-1-quinolinyl)acetamide] | – | 25.4 | fold induction at 25 µM [2, 4]: 33.2 |
| O=C(Cn1cc(C(=O)c2ccccc2)c(=O)c2cc3c(cc21)OCO3)Nc1ccc(F)cc1 [Example 63, 2-(3-Benzoyl-6,7-methylenedioxy-4-oxo-1-quinolinyl)-N-(4-fluorophenyl)acetamide] | – | 24.3 | fold induction at 25 µM [2, 4]: 37.3 |
| COc1ccc(C(=O)c2cn(CC(=O)Nc3ccc4c(c3)OCCO4)c3cc4c(cc3c2=O)OCO4)cc1 [Example 58, 2-(3-p-Anisoyl-67-methylenedioxy-4-oxo-1-quinolinyl)-N-(3,4-ethylenedioxyphenyl)acetamide] | – | 3.6 | fold induction at 25 µM [2, 4]: 2.5 |
| COc1ccc(C(=O)c2cn(CC(=O)Nc3ccc(Cl)cc3)c3cc4c(cc3c2=O)OCO4)cc1 [Example 29, 2-[3-p-Anisoyl-6,7-methylenedioxy-4-oxo-1-quinolinyl]-N-(4-chlorophenyl)acetamide] | – | 55 | – |
| COc1cccc2c(=O)c(C(=O)c3ccc(F)cc3)cn(CC(=O)Nc3ccc(Cl)cc3)c12 [Example 43] | – | – | fold induction at 25 µM [2, 5]: 3.8 |
| O=C(Cn1cc(C(=O)c2ccc(F)cc2)c(=O)c2cc3c(cc21)OCO3)Nc1ccc2c(c1)OCO2 [Example 86, 2-[3-(4-Fluorobenzoyl)-6,7-methylenedioxy-4-oxo-1-quinolinyl]-N-(3,4-methylenedioxyphenyl)acetamide] | – | 28.3 | fold induction at 25 µM [2, 4]: 22.7 |
| CN(C(=O)Cn1cc(C(=O)c2ccc3ccccc3c2)c(=O)c2cc3c(cc21)OCO3)c1ccc(Cl)cc1 [Example 15, N-(4-Chlorophenyl)-N-methyl-2-[6,7-methylenedioxy-3-(2-naphthoyl)-4-oxo-1-quinolinyl]acetamide] | – | – | fold induction at 25 µM [2, 5]: 4.3 |
| COc1ccc2c(n1)c(=O)c(C(=O)c1ccc3ccccc3c1)cn2CC(=O)Nc1ccc(Cl)cc1 [Example 21, N-(4-Chlorophenyl)-2-[6-methoxy-3-(2-naphthoyl)-4-oxo-(1,5-naphthyridin-1-yl)]acetamide] | – | – | fold induction at 25 µM [2, 6]: 68.7; fold induction at 25 µM [2, 5]: 9.2 |
| COc1cc2c(cc1C)c(=O)c(C(=O)c1ccc3ccccc3c1)cn2CC(=O)Nc1ccc(Cl)cc1 [Example 20, N-(4-Chlorophenyl)-2-[7-methoxy-6-methyl-3-(2-naphthoyl)-4-oxo-1-quinolinyl]acetamide] | – | – | fold induction at 25 µM [2, 6]: 6.3 |
| O=C(Cn1cc(C(=O)c2ccc(F)cc2)c(=O)c2cc3c(cc21)OCO3)Nc1ccc(Cl)cc1 [Example 89, N-(4-Chlorophenyl)-2-[3-(4-fluorobenzoyl)-6,7-methylenedioxy-4-oxo-1-quinolinyl]acetamide] | – | 34.4 | fold induction at 25 µM [2, 6]: 17.1; fold induction at 25 µM [2, 4]: 33 |
| CCOc1ccc2c(c1)c(=O)c(C(=O)c1ccc(C)cc1)cn2CC(=O)Nc1ccccc1C [Example 91, 2-(6-Ethoxy-4-oxo-3-p-toluoyl-1-quinolinyl)-N-o-tolylacetamide] | 5.3 | – | – |
| COc1cc(OC)c2c(c1)c(=O)c(C(=O)c1ccc(F)cc1)cn2CC(=O)Nc1ccc(Cl)cc1 [Example 42, N-(4-Chlorophenyl)-2-[6,8-dimethoxy-3-(4-fluorobenzoyl)-4-oxo-1-quinolinyl]acetamide] | – | – | fold induction at 25 µM [2, 5]: 2.5 |
| O=C(Cn1cc(C(=O)c2ccccc2)c(=O)c2cc3c(cc21)OCO3)Nc1ccc(Cl)cc1 [Example 48, 2-(3-Benzoyl-6,7-methylenedioxy-4-oxo-1-quinolinyl)-N-(4-chlorophenyl)acetamide] | – | 42.5 | fold induction at 25 µM [2, 4]: 81.4 |
